Results published in patent US5442077A, “Benzo[B]Furancarboxamide derivatives, process for the preparation of same and use thereof for improving hypermotility” (Sanwa Kagaku Kenkyusho Co., Ltd., priority 1993, dated 1995).
Where a name gives a salt, the structure may show the parent alone.

Columns and labels:
dopamine D2 receptor = experiment: Anti-Dopamine Action (general symptoms including catalepsy and blepharoptosis); format: in vivo, rat
Method: The compound was orally administered to rats in amount of 100, 300 or 1000 mg/kg to observe for 2 days general symptoms including catalepsy and blepharoptosis due to antagonistic action of the compound to dopamine D2 receptor.

digestive tract = experiment: Action on Hypermotility of Digestive Tract (acceleration of gastric emptying, phenol red); format: in vivo; conditions: Rattus norvegicus, oral, rats fasted for 24 hours, phenol red 30 min after administration
Method: The compounds obtained by Examples 1, 2 and 5 as well as exemplar known compounds (Metocloplamide and Cysapride) were selected as Test Compounds, and an action of the compounds for accelerating gastric emptying was checked in accordance with the method described by Yokochi et al [" (which can be translated as --Bulletin of Pharmacological Society of Japan--)", Vol. 92, page 297 (1988 )].
Namely, the test compound was orally administered in an amount of 0.3, 1.0, 3.0 or 10 mg/kg to rats fasted for 24 hours, and after 30 minutes from the administration, a coloring matter in a constant amount (phenol red, 100 μg) was also orally administered.
Rate of gastric emptying=100-(B/A)×100
A: Dosing amount of coloring matter, and
B: Remaining amount of coloring matter.
Rate of acceleration=(C-D)×100
C: Rate of gastric emptying in Test Group, and
D: Rate of gastric emptying in Control Group given no Test Compound.

5-HT4 receptor = target: T1, 5-HT4 receptor (Rattus norvegicus, UniProt Q62758); experiment: Agonisting Action to 5-HT4 Receptor (relaxation of carbachol-treated oesophageal mucous membrane muscle sample); format: cell-based; conditions: negative logarithm of concentration causing 50% relaxation, rat esophagus
T1 construct: muscular sample of mucous membrane in esophgus exentrated from a rat; from tissue; host or cells: rat oesophagus, muscularis mucosae

[1] = oral, rats, observed for 2 days

T1 sequence (Q62758 whole entry): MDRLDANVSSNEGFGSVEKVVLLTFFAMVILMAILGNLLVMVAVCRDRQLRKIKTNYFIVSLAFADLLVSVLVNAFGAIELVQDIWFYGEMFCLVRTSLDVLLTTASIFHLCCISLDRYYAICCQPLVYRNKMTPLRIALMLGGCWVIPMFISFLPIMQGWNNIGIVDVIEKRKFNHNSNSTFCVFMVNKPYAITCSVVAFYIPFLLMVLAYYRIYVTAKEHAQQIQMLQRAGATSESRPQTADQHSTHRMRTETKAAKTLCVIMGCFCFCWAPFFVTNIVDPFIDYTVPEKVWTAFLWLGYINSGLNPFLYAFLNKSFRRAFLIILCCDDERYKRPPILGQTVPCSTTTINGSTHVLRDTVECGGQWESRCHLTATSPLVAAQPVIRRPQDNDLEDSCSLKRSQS

Compound	Influence on central nervous system, 1000 mg/kg (dopamine D2 receptor; [1])	ED50 (digestive tract) [mg/kg]	EC50 (5-HT4 receptor) [nM]	also measured
CC1(C)Cc2c(N)c(Cl)cc(C(=O)NCCC34CCCN3CCC4)c2O1 [Example 5, 4-Amino-N-[2-(1-azabicyclo[3.3.0]octan-5-yl)ethyl]-5-chloro-2,2-dimethyl-2,3-dihydrobenzo[b]furan-7-carboxamide]	-	1.5	316	
Nc1c(Cl)cc(C(=O)NCCC23CCCN2CCC3)c2c1CCO2 [Example 1, 4-Amino-N-[2-(1-azabicyclo[3.3.0]octan-5-yl)ethyl]-5-chloro-2,3-dihydrobenzo[b]furan-7-carboxamide]	-	2.15	316	
CC(=O)Nc1c(Cl)cc(C(=O)NCCC23CCCN2CCC3)c2c1CC(C)O2 (centres unmarked) [Example 8, 4-Acetylamino-N-[2-(1-azabicyclo[3.3.0]octan-5-yl)ethyl]-5-chloro-2-methyl-2,3-dihydrobenzo[b]furan-7-carboxamide]			316	
CCC1Cc2c(N)c(Cl)cc(C(=O)NCCC34CCCN3CCC4)c2O1 (centres unmarked) [Example 7, 4-Amino-N-[2-(1-azabicyclo[3.3.0]octan-5-yl)ethyl]-5-chloro-2-ethyl-2,3-dihydrobenzo[b]furan-7-carboxamide]			20	
CC1Cc2c(N)c(Cl)cc(C(=O)NCCC34CCCN3CCC4)c2O1 (single isomer, unassigned; (+)) [Example 4, (+)-4-Amino-N-[2-(1-azabicyclo[3.3.0]octan-5-yl)ethyl]-5-chloro-2-methyl-2,3-dihydrobenzo[b]furan-7-carboxamide . 1/2 fumarate]			50.1	
COc1cc(N)c(Cl)cc1C(=O)NC1CCN(CCCOc2ccc(F)cc2)CC1OC (centres unmarked) [Cisapride, reference compound]	++	6.37	39.8	
CC1Cc2c(N)ccc(C(=O)NCCC34CCCN3CCC4)c2O1 (centres unmarked) [Example 10, 4-Amino-N-[2-(1-azabicyclo[3.3.0]octan-5-yl)ethyl]-2-methyl-2,3-dihydrobenzo[b]furan-7-carboxamide]			1000	
CC1Cc2c(N)c(Cl)cc(C(=O)NCCC34CCCN3CCC4)c2O1 (centres unmarked) [Example 2, 4-Amino-N-[2-(1-azabicyclo[3.3.0]octan-5-yl)ethyl]-5-chloro-2-methyl-2,3-dihydrobenzo[b]furan-7-carboxamide]	-	1.97		Influence on central nervous system, 100 mg/kg (dopamine D2 receptor; [1]): -; Influence on central nervous system, 300 mg/kg (dopamine D2 receptor; oral, rats, 300 mg/kg, observed for 2 days): -
CC1Oc2c(C(=O)NCCC34CCCN3CCC4)cc(Cl)c(N)c2C1C (centres unmarked) [Example 6, 4-Amino-N-[2-(1-azabicyclo[3.3.0]octan-5-yl)ethyl]-5-chloro-2,3-dimethyl-2,3-dihydrobenzo[b]furan-7-carboxamide]			12.6	
CCN(CC)CCNC(=O)c1cc(Cl)c(N)cc1OC [Metoclopramide, 4-amino-5-chloro-N-[(2-diethylamino)ethyl]-2-methoxybenzamide, reference compound]		16.3		Influence on central nervous system, 100 mg/kg (dopamine D2 receptor; rat, in vivo, po): ++
CC1Cc2cc(Cl)cc(C(=O)NCCC34CCCN3CCC4)c2O1 (centres unmarked) [Example 9, N-[2-(1-Azabicyclo[3.3.0]octan-5-yl)ethyl]-5-chloro-2-methyl-2,3-dihydrobenzo[b]furan-7-carboxamide]			100	
CC1Cc2c(N)c(Cl)cc(C(=O)NCCC34CCCN3CCC4)c2O1 (centres unmarked) [2 (*), 4-Amino-N-[2-(1-azabicyclo[3.3.0]octan-5-yl)ethyl]-5-chloro-2-methyl-2,3-dihydrobenzo[b]furan-7-carboxamide]			39.8	
CC1Cc2c(N)c(Cl)cc(C(=O)NCCC34CCCN3CCC4)c2O1 (single isomer, unassigned; (-)) [Example 3, (-)-4-Amino-N-[2-(1-azabicyclo[3.3.0]octan-5-yl)ethyl]-5-chloro-2-methyl-2,3-dihydrobenzo[b]furan-7-carboxamide . 1/2 fumarate]			20	
